Tests used:
TYK2 = target: T1, TYK2 (Homo sapiens, UniProt P29597); experiment: Z'-LYTE kinase assay TYK2; format: biochemical
T1 construct: 5 μl of catalytic domain recombinant Kinase enzyme+Tyr peptide substrate (Invitrogen, CA); purchased Invitrogen
T1 sequence (P29597 897-1176 limits assumed): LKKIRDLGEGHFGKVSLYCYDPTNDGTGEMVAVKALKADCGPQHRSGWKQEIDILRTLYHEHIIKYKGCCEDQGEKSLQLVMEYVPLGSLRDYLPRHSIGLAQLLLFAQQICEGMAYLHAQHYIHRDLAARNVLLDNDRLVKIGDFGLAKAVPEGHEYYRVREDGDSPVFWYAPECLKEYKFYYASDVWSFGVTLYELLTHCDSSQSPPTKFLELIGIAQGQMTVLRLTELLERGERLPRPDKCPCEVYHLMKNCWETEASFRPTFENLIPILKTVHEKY
How it was run: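 IC50 derived by 4-parameter logistic fit of percent substrate phosphorylation relative to uninhibited wells. Tyr6 peptide phosphorylated by recombinant TYK2 catalytic domain for 1 h at room temperature (1% DMSO), cleaved by development protease 1 h, FRET emission ratio 445/520 nm.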

[1] = test system: JAK1/3 signaling to STAT6 in Ramos B cells; experiment: IL4 stimulation of JAK1/3 signaling to STAT6 in Ramos B cells (pSTAT6 Y641, FACS); format: cell-based; details: Homo sapiens; for inhibition at 0.2 µM: 0.2 uM compound, read-out: IL-4/STAT6 in Ramos Percent Inhibition at 0.2 uM; for inhibition at 1 µM: 1.0 uM compound, read-out: IL-4/STAT6 in Ramos Percent Inhibition at 1.0 uM
Protocol: IL4 stimulation of JAK1/3 signaling to STATE in Ramos B cells:
As an alternative strategy to measure effect of JAK3 inhibitors on JAK1/3 dependent cytokine signaling pathways, IL4 stimulation of the Ramos Burkett's B cell line is used. IL4 engages a receptor consisting of the IL4 receptor alpha chain and the common gamma chain. […] Ramos B cells are suspended in tissue culture media containing 10% fetal calf serum at 10×10̂6 cells/ml. 100 μl aliquots are pre-treated for 1 hour with various concentrations of compound, and then stimulated for 15 minutes with 15 ng IL4. The signaling reaction is terminated by fixing in 2% paraformaldehyde for 10 minutes at room temperature. Fixed cells are then washed and permeablized by suspension in 100% methanol at −80° C. Following overnight incubation at 4° C., cells are washed and resuspended in PBS containing 0.5% bovine serum albumin containing pSTAT6 Y641-PE conjugated antibody. After 1 hour incubation, cells are washed and the extent of STAT6 phosphorlyation in Ramos cells is measured by FACS analysis.

JAK1 = target: T2, JAK1 (Homo sapiens, UniProt P23458); experiment: Z'-LYTE kinase assay JAK1; format: biochemical
T2 construct: 5 μl of catalytic domain recombinant Kinase enzyme+Tyr peptide substrate (Invitrogen, CA); purchased Invitrogen
How it was run: (§1)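 In duplicate wells, each test molecule (1% final DMSO) is incubated with recombinant kinase catalytic domain, Tyr6 peptide substrate and ATP for one hour at room temperature; a site-specific protease is then added for another hour before fluorescence reading.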

JAK3 = target: T3, JAK3 (Homo sapiens, UniProt P52333); experiment: Z'-LYTE kinase assay JAK3; format: biochemical
T3 construct: 5 μl of catalytic domain recombinant Kinase enzyme+Tyr peptide substrate (Invitrogen, CA); purchased Invitrogen
How it was run: as §1

JAK2 = target: T4, JAK2 (Homo sapiens, UniProt O60674); experiment: Z'-LYTE kinase assay JAK2; format: biochemical
T4 construct: 5 μl of catalytic domain recombinant Kinase enzyme+Tyr peptide substrate (Invitrogen, CA); purchased Invitrogen
How it was run: as §1

T4 sequence (O60674 849-1124 limits assumed): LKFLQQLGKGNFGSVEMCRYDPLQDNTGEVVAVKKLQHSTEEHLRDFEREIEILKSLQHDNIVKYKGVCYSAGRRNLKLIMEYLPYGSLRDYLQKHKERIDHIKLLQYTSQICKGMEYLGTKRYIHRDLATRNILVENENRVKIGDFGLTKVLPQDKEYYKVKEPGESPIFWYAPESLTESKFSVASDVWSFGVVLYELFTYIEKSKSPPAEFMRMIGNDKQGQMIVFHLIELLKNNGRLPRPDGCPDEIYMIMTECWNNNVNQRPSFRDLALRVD
T2 sequence (P23458 875-1153 limits assumed): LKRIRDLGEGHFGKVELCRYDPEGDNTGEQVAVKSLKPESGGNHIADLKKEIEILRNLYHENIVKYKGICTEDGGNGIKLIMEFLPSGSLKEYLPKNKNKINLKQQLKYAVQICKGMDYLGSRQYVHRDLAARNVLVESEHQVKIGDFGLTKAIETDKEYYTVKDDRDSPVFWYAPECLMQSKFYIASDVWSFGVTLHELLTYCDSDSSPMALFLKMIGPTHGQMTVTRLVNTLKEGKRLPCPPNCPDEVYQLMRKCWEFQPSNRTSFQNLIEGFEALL
T3 sequence (P52333 822-1111 limits assumed): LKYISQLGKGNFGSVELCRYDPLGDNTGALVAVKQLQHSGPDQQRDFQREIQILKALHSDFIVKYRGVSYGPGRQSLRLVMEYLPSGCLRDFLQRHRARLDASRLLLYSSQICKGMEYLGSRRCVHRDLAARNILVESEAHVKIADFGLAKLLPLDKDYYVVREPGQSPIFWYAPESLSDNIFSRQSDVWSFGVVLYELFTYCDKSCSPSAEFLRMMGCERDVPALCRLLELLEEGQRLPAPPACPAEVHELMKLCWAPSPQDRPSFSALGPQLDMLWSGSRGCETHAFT

Row | Structure (SMILES) | IC50 (TYK2) [nM] | inhibition at 0.2 µM [1] [%] | inhibition at 1 µM [1] [%] | IC50 (JAK1) [nM] | IC50 (JAK3) [nM] | IC50 (JAK2) [nM]
1 | NC(=O)c1cnc(Nc2ccc(C(=O)N3CCOCC3)cc2)cc1NCc1ccccc1 [Example 40, 4-(benzylamino)-6-(4-(morpholine-4-carbonyl)phenylamino)nicotinamide] | 100 to 1000 | 46 | 69 | 100 to 1000 | 1 to 10 | 100 to 1000
2 | CNC(=O)[C@H]1CCCN(c2ccc(Nc3cc(NCc4ccccc4)c(C(N)=O)cn3)cc2)C1 [Example 4, (S)-4-(benzylamino)-6-(4-(3-(methylcarbamoyl)piperidin-1-yl)phenylamino)nicotinamide] | 100 to 1000 | 32 | 68 | 100 to 1000 | 1 to 10 | 100 to 1000
3 | NC(=O)c1cnc(Nc2ccc(OCC(=O)N3CCOCC3)cc2)cc1NCc1ccccc1 [Example 80, 4-(benzylamino)-6-(4-(2-morpholino-2-oxoethoxy)phenylamino)nicotinamide] | > 1000 | 23 | 43 | > 1000 | 10 to 100 | 100 to 1000
4 | NC(=O)c1cnc(Nc2ccc(N3CCCCC3=O)cc2)cc1NCc1ccccc1F [Example 71, 4-(2-fluorobenzylamino)-6-(4-(2-oxopiperidin-1-yl)phenylamino)nicotinamide] | 100 to 1000 | 22 | 37 | 100 to 1000 | 1 to 10 | 100 to 1000
5 | Cc1ccc(Nc2cc(NCc3ccccc3)c(C(N)=O)cn2)cc1 [Example 10, 4-(benzylamino)-6-(p-tolylamino)nicotinamide] | > 1000 | 6 | 20 | > 1000 | 100 to 1000 | > 1000
6 | NC(=O)c1cnc(Nc2ccc(C(=O)N3CCC3)cc2)cc1NCc1ccccc1 [Example 46, 6-(4-(azetidine-1-carbonyl)phenylamino)-4-(benzylamino)nicotinamide] | 100 to 1000 | 54 | 80 | 100 to 1000 | 1 to 10 | 100 to 1000
7 | CNC(=O)[C@@H]1CCCN(c2ccc(Nc3cc(NCc4ccccc4)c(C(N)=O)cn3)cc2)C1 [Example 6, (R)-4-(benzylamino)-6-(4-(3-(methylcarbamoyl)piperidin-1-yl)phenylamino)nicotinamide] | 100 to 1000 | 39 | 65 | 100 to 1000 | 1 to 10 | 100 to 1000
8 | COCCOc1cccc(Nc2cc(NCc3ccccc3)c(C(N)=O)cn2)c1 [Example 433, -(benzylamino)-6-(3-(2-methoxyethoxyl)phenylamino)nicotinamide] | > 1000 | 18 | 27 | 100 to 1000 | 10 to 100 | 100 to 1000
9 | NC(=O)c1cnc(Nc2ccc(OCCN3CCCCC3)cc2)cc1NCc1ccccc1 [Example 81, 4-(benzylamino)-6-(4-(2-(piperidin-1-yl)ethoxy)phenylamino)nicotinamide] | > 1000 | 29 | 48 | > 1000 | 10 to 100 | 100 to 1000
10 | NC(=O)c1cnc(Nc2cccc(OCCN3CCCC3)c2)cc1NCc1cccc(F)c1 [Example 58, 4-(3-fluorobenzylamino)-6-(3-(2-(pyrrolidin-1-yl)ethoxy)phenylamino)nicotinamide] | > 1000 | 33 | 60 | 100 to 1000 | 1 to 10 | 10 to 100
11 | NC(=O)c1cnc(Nc2cccc(N3CCOCC3)c2)cc1NCc1cccc(F)c1 [Example 65, 4-(3-fluorobenzylamino)-6-(3-morpholinophenylamino)nicotinamide] | > 1000 | 28 | 49 | 100 to 1000 | 1 to 10 | 10 to 100
12 | NC(=O)c1cnc(Nc2ccc(N3CCOCC3)c(Cl)c2)cc1NCc1ccccc1 [Example 251, 4-(benzylamino)-6-(3-chloro-4-morpholinophenylamino)nicotinamide] | > 1000 | 17 | 51 | > 1000 | 10 to 100 | 100 to 1000
13 | CNC(=O)[C@@H]1CCCN(c2ccc(Nc3cc(N[C@H](C)c4ccccc4)c(C(N)=O)cn3)cc2)C1 [Example 8, 6-(4-((R)-3-(methylcarbamoyl)piperidin-1-yl)phenylamino)-4-((R)-1-phenylethylamino)nicotinamide] | > 1000 | 8 | 30 | 100 to 1000 | 1 to 10 | 100 to 1000
14 | CC(=O)N1CCN(c2ccc(Nc3cc(NCC4CCCC4)c(C(N)=O)cn3)cc2)CC1 [Example 245, 6-(4-(4-acetylpiperazin-1-yl)phenylamino)-4-(cyclopentylmethylamino)nicotinamide] | 10 to 100 | 14 | 38 | 100 to 1000 | 1 to 10 | 10 to 100
15 | COc1cccc(Nc2cc(NCc3ccccc3)c(C(N)=O)cn2)c1 [Example 11, 4-(benzylamino)-6-(3-methoxyphenylamino)nicotinamide] | > 1000 | 11 | 15 | > 1000 | 10 to 100 | > 1000
16 | NC(=O)c1cnc(Nc2ccc(C3CCNCC3)cc2)cc1NCc1cccc(F)c1 [Example 70, 4-(3-fluorobenzylamino)-6-(4-(piperidin-4-yl)phenylamino)nicotinamide] | 100 to 1000 | 23 | 45 | 100 to 1000 | 1 to 10 | 10 to 100
17 | NC(=O)c1cnc(Nc2ccc(N3CCCCC3=O)cc2)cc1NCc1cc(F)ccc1F [Example 94, 4-(2,5-difluorobenzylamino)-6-(4-(2-oxopiperidin-1-yl)phenylamino)nicotinamide] | 100 to 1000 | 35 | 62 | 100 to 1000 | 1 to 10 | 10 to 100
18 | COc1cc(Nc2cc(NCc3cccc(F)c3)c(C(N)=O)cn2)ccc1N1CCCC1=O [Example 63, 4-(3-fluorobenzylamino)-6-(3-methoxy-4-(2-oxopyrrolidin-1-yl)phenylamino)nicotinamide] | > 1000 | 32 | 46 | 100 to 1000 | 1 to 10 | 100 to 1000
19 | NC(=O)c1cnc(Nc2ccc(C3CCNCC3)cc2)cc1NCc1ccccc1F [Example 106, 4-(2-fluorobenzylamino)-6-(4-(piperidin-4-yl)phenylamino)nicotinamide] | 100 to 1000 | 28 | 49 | 100 to 1000 | 1 to 10 | 100 to 1000
20 | COc1ccc(Nc2cc(NCc3ccccc3)c(C(N)=O)cn2)cc1 [Example 12, 4-(benzylamino)-6-(4-methoxyphenylamino)nicotinamide] | > 1000 | 15 | 11 | > 1000 | 10 to 100 | 100 to 1000
21 | CN(C)C(=O)c1cccc(Nc2cc(NCc3ccccc3)c(C(N)=O)cn2)c1 [Example 247, 4-(benzylamino)-6-(3-(dimethylcarbamoyl)phenylamino)nicotinamide] | 100 to 1000 | 6 | 24 | 100 to 1000 | 10 to 100 | 100 to 1000
22 | NC(=O)c1cnc(Nc2cccc(OCCN3CCCC3)c2)cc1NCc1cccnc1 [Example 60, 4-(pyridin-3-ylmethylamino)-6-(3-(2-(pyrrolidin-1-yl)ethoxy)phenylamino)nicotinamide] | > 1000 | 22 | 40 | 100 to 1000 | 1 to 10 | 100 to 1000

From patent publication US20150353495A1 (PORTOLA PHARMACEUTICALS, INC., priority 2010, published 2015)
